Experimental data published in patent US9206156B2, “Substituted indole derivatives” (GRÜNENTHAL GMBH, priority 2008, dated 2015).

Assays:
human μ-opiate receptor = molecular target: T1, human μ-opiate receptor (Homo sapiens, UniProt P35372); assay: μ-opiate receptor binding assay with [3H] naloxone (WGA-SPA beads); settings: 1 μmol/l test substance, 1 nmol/l [3H] naloxone, CHO-K1 cell membranes expressing human μ-opiate receptor
T1 construct: purchased NEN, Zaventem, Belgium RB-HOM; host or cells: CHO-K1 cells (membrane preparation)
In short: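 CHO-K1 membranes expressing human μ-opiate receptor incubated 90 min at room temperature with 1 nmol/l [3H]naloxone and WGA-SPA beads in 50 mmol/l Tris-HCl with 0.05% azide, 0.06% BSA. Non-specific binding with 25 μmol/l naloxone; % inhibition at 1 μmol/l, or IC50 converted to Ki via Cheng-Prusoff.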

ORL1 receptor = molecular target: T2, ORL1 receptor (Homo sapiens, UniProt P41146); assay: ORL1 receptor binding assay with 3H-nociceptin/orphanin FQ (WGA-SPA beads); settings: c=1 μM test substance; 0.5 nM 3H-nociceptin/orphanin FQ; membranes of recombinant CHO-ORL1 cells
T2 construct: expressed in transfected cells; host or cells: CHO (recombinant CHO-ORL1 cells), membranes
In short: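 Radioligand displacement on membranes from recombinant CHO-ORL1 cells, 0.5 nM 3H-nociceptin/orphanin FQ, 20 μg membrane protein per batch in 50 mM Hepes pH 7.4, 10 mM MgCl2, 1 mM EDTA. Incubated 1 h at room temperature with WGA-SPA beads, scintillation read. Reported as Ki (nM) or % inhibition at 1 μM.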

T2 sequence (P41146 whole entry): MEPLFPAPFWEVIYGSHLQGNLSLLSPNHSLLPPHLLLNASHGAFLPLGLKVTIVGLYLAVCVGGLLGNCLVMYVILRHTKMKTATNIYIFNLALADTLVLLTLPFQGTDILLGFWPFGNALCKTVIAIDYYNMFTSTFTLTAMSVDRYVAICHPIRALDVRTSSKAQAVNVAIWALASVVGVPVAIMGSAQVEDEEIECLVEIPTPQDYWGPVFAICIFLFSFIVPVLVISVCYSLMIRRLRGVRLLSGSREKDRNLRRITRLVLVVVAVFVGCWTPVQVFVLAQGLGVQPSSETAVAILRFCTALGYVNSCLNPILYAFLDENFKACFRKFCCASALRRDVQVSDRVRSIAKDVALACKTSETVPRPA
T1 sequence (P35372 whole entry): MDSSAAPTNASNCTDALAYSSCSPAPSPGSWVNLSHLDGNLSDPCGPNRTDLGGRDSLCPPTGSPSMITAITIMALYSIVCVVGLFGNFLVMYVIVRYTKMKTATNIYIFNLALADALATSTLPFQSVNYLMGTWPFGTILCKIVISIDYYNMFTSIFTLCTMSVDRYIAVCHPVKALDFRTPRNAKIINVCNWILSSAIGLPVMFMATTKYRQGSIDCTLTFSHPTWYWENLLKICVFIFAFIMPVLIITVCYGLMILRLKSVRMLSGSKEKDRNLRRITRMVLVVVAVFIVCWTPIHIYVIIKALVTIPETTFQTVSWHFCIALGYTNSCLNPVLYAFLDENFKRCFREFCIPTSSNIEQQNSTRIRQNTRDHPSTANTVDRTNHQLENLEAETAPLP

In the case of `CCCCC1(N(C)C)CCN(CCN(C)C(=O)c2cc3cc(F)ccc3[nH]2)CC1` [Example 52, N-(2-(4-Butyl-4-(dimethylamino)piperidin-1-yl)ethyl)-5-fluoro-N-methyl-1H-indole-2-carboxamide], the inhibition at 1 µM (human μ-opiate receptor) is reported as 65% and the inhibition at 1 µM (ORL1 receptor) is reported as 28%.
`CN(CCN1CCC(c2ccccc2)(N2CCCC2)CC1)C(=O)Cc1c[nH]c2cc(F)ccc12` [Example 36, 2-(6-Fluoro-1H-indol-3-yl)-N-methyl-N-(2-(4-phenyl-4-(pyrrolidin-1-yl)piperidin-1-yl)ethyl)acetamide] gave an inhibition at 1 µM (human μ-opiate receptor) of 62% and an inhibition at 1 µM (ORL1 receptor) of 31%.
Work on `CN(C)C1(c2ccccc2)CCN(C(=O)C2CCCN(Cc3ccc4cc[nH]c4c3)C2)CC1` (stereo not shown) [Example 152, (1-((1H-indol-6-yl)methyl)piperidin-3-yl)(4-(dimethylamino)-4-phenylpiperidin-1-yl)methanone] yielded an inhibition at 1 µM (human μ-opiate receptor) of 93% and an inhibition at 1 µM (ORL1 receptor) of 80%.
Work on `CN(C)C1(c2cccs2)CCN(CCNC(=O)C2CCCc3c2[nH]c2ccc(Cl)cc32)CC1` (stereo not shown) [Example 7, 6-Chloro-N-(2-(4-(dimethylamino)-4-(thiophen-2-yl)piperidin-1-yl)ethyl)-2,3,4,9-tetrahydro-1H-carbazole-1-carboxamide] yielded an inhibition at 1 µM (human μ-opiate receptor) of 95% and an inhibition at 1 µM (ORL1 receptor) of 62%.
For `COc1ccc2[nH]cc(CN(C)CCN3CCC(c4ccccc4)(N(C)C)CC3)c2c1` [Example 190, 1-(2-(((5-methoxy-1H-indol-3-yl)methyl)(methyl)amino)ethyl)-N,N-dimethyl-4-phenylpiperidin-4-amine], the inhibition at 1 µM (human μ-opiate receptor) was 97% and the inhibition at 1 µM (ORL1 receptor) was 80%.
`CN(C)C1(c2cccs2)CCN(CCNC(=O)Cc2c[nH]c3cc(F)ccc23)CC1` [Example 8, N-(2-(4-(Dimethylamino)-4-(thiophen-2-yl)piperidin-1-yl)ethyl)-2-(6-fluoro-1H-indol-3-yl)acetamide] gave an inhibition at 1 µM (human μ-opiate receptor) of 99% and an inhibition at 1 µM (ORL1 receptor) of 96%.
For `COc1ccc2c(c1)c(CN(C)CCN1CCC(c3ccccc3)(N(C)C)CC1)c(C)n2Cc1ccccc1` [Example 77, 1-(2-(((1-Benzyl-5-methoxy-2-methyl-1H-indol-3-yl)methyl)(methyl)amino)ethyl)-N,N-dimethyl-4-phenylpiperidin-4-amine], the “% Inhibition (μ) at 1 μM” value (human μ-opiate receptor) was 89% and the “% Inhibition (ORL1) at 1 μM” value (ORL1 receptor) was 60%.
`CN(C)C1(c2ccccc2)CCN(C(=O)CCNCc2ccc3cc[nH]c3c2)CC1` [Example 145, 3-((1H-indol-6-yl)methylamino)-1-(4-(dimethylamino)-4-phenylpiperidin-1-yl)propan-1-one] gave an inhibition at 1 µM (human μ-opiate receptor) of 80% and an inhibition at 1 µM (ORL1 receptor) of 45%.
With `CN(C)C1(c2cccs2)CCN(C(=O)CC(NC(=O)c2ccc3cc[nH]c3c2)c2ccccc2)CC1` (stereo not shown) [Example 96, N-(3-(4-(dimethylamino)-4-(thiophen-2-yl)piperidin-1-yl)-3-oxo-1-phenylpropyl)-1H-indole-6-carboxamide] the inhibition at 1 µM (human μ-opiate receptor) was 96% and the inhibition at 1 µM (ORL1 receptor) was 79%.
`CC(CC(=O)N1CCCC(C(=O)N2CCC(c3ccccc3)(N(C)C)CC2)C1)c1c[nH]c2ccccc12` (stereo not shown) [Example 122, 1-(3-(4-(dimethylamino)-4-phenylpiperidine-1-carbonyl)piperidin-1-yl)-3-(1H-indol-3-yl)butan-1-one] gave an inhibition at 1 µM (human μ-opiate receptor) of 84% and an inhibition at 1 µM (ORL1 receptor) of 43%.
Molecule `CN(C)C1(c2cccs2)CCN(C(=O)CC(NCc2c[nH]c3ccc(Br)cc23)c2ccccc2)CC1` (stereo not shown) [Example 163, 3-((5-bromo-1H-indol-3-yl)methylamino)-1-(4-(dimethylamino)-4-(thiophen-2-yl)piperidin-1-yl)-3-phenylpropan-1-one] has an inhibition at 1 µM (human μ-opiate receptor) of 87% and an inhibition at 1 µM (ORL1 receptor) of 55%.
In the case of `CN(CCN1CCC(c2ccccc2)(N(C)C)CC1)Cc1ccc2cc[nH]c2c1` [Example 184, 1-(2-(((1H-indol-6-yl)methyl)(methy)amino)ethyl)-N,N-dimethyl-4-phenylpiperidin-4-amine], the “% Inhibition (μ) at 1 μM” value (human μ-opiate receptor) is reported as 99% and the “% Inhibition (ORL1) at 1 μM” value (ORL1 receptor) is reported as 95%.
`CC(C)C(CC(=O)N1CCCC(C(=O)N2CCC(c3ccccc3)(N(C)C)CC2)C1)c1c[nH]c2ccccc12` (stereo not shown) [Example 106, 1-(3-(4-(dimethylamino)-4-phenylpiperidine-1-carbonyl)piperidin-1-yl)-3-(1H-indol-3-yl)-4-methylpentan-1-one] gave an inhibition at 1 µM (human μ-opiate receptor) of 92% and an inhibition at 1 µM (ORL1 receptor) of 63%.
In the case of `CN(C)C1(c2ccccc2)CCN(C(=O)CCNC(=O)CCc2cn(C)c3ccccc23)CC1` [Example 117, N-(3-(4-(dimethylamino)-4-phenylpiperidin-1-yl)-3-oxopropyl)-3-(1-methyl-1H-indol-3-yl)propanamide], the inhibition at 1 µM (human μ-opiate receptor) is reported as 79% and the inhibition at 1 µM (ORL1 receptor) is reported as 48%.
With `CC(C)C(CC(=O)N(C)CCN1CCC(c2ccccc2)(N(C)C)CC1)c1c[nH]c2ccccc12` (stereo not shown) [Example 87, N-(2-(4-(dimethylamino)-4-phenylpiperidin-1-yl)ethyl)-3-(1H-indol-3-yl)-N,4-dimethylpentanamide] the “% Inhibition (μ) at 1 μM” value (human μ-opiate receptor) was 102% and the “% Inhibition (ORL1) at 1 μM” value (ORL1 receptor) was 93%.
Work on `Cc1[nH]c2ccccc2c1CN1CCCC(C(=O)N2CCC(c3ccccc3)(N(C)C)CC2)C1` (stereo not shown) [Example 156, (4-(dimethylamino)-4-phenylpiperidin-1-yl)(1-((2-methyl-1H-indol-3-yl)methyl)piperidin-3-yl) methanone] yielded an inhibition at 1 µM (human μ-opiate receptor) of 57% and an inhibition at 1 µM (ORL1 receptor) of 39%.
`CCCCC1(N(C)C)CCN(CCN(C)C(=O)c2cccc3c2ccn3C)CC1` [Example 41, N-(2-(4-Butyl-4-(dimethylamino)piperidin-1-yl)ethyl)-N,1-dimethyl-1H-indole-4-carboxamide] showed an inhibition at 1 µM (human μ-opiate receptor) of 63% and an inhibition at 1 µM (ORL1 receptor) of 17%.
`Cc1c(CNCCN2CCC(c3cccs3)(N(C)C)CC2)c2ccccc2n1C` [Example 80, 1-(2-((1,2-Dimethyl-1H-indol-3-yl)methylamino)ethyl)-N,N-dimethyl-4-(thiophen-2-yl)pipendin-4-amine] showed an inhibition at 1 µM (human μ-opiate receptor) of 101% and an inhibition at 1 µM (ORL1 receptor) of 97%.
In the case of `CN(CCCN1CCC(c2cccs2)(N(C)C)CC1)C(=O)c1c[nH]c2ccccc12` [Example 11, N-(3-(4-(Dimethylamino)-4-(thiophen-2-yl)piperidin-1-yl)propyl)-N-methyl-1H-indole-3-carboxamide], the inhibition at 1 µM (human μ-opiate receptor) is reported as 86% and the inhibition at 1 µM (ORL1 receptor) is reported as 80%.
`CN(C)C1(c2ccccc2)CCN(C(=O)C2CCCN(Cc3cccc4[nH]ccc34)C2)CC1` (stereo not shown) [Example 161, (1-((1H-indol-4-yl)methyl)piperidin-3-yl)(4-(dimethylamino)-4-phenylpiperidin-1-yl)methanone] was tested, and the inhibition at 1 µM (human μ-opiate receptor) was 66% and the inhibition at 1 µM (ORL1 receptor) was 15%.
In the case of `CN(C)C1(c2cccs2)CCN(CCNC(=O)c2cccc3c2ccn3C)CC1` [Example 10, N-(2-(4-(Dimethylamino)-4-(thiophen-2-yl)piperidin-1-yl)ethyl)-1-methyl-1H-indole-4-carboxamide], the inhibition at 1 µM (human μ-opiate receptor) is reported as 99% and the inhibition at 1 µM (ORL1 receptor) is reported as 56%.
With `CN(CCN1CCC(c2ccccc2)(N(C)C)CC1)C(=O)c1cc2cc(F)ccc2[nH]1` [Example 3, N-(2-(4-(Dimethylamino)-4-phenylpiperidin-1-yl)ethyl)-5-fluoro-N-methyl-1H-indol-2-amide] the “% Inhibition (μ) at 1 μM” value (human μ-opiate receptor) was 92% and the “% Inhibition (ORL1) at 1 μM” value (ORL1 receptor) was 90%.
`CC(C)C(CC(=O)N(C)CCN1CCC(c2ccccc2)(N(C)C)CC1)c1c[nH]c2ccccc12` (stereo not shown) [Example 24, N-(2-(4-(Dimethylamino)-4-phenylpiperidin-1-yl)ethyl)-3-(1H-indol-3-yl)-N,4-dimethylpentanamide] showed an inhibition at 1 µM (human μ-opiate receptor) of 97% and an inhibition at 1 µM (ORL1 receptor) of 84%.
